“And” between values parts separate entries of the source, which are not always exact repeats. Identical values can stand only once. Inconclusive results and toxic doses are left out.

This is an account of results in PubChem BioAssay AID330 (DTP/NCI, 2004).

For this experiment, the system named is P388 leukemia ip, CD2F1 mice, survival T/C. The experiment can be described thus: NCI In Vivo Anticancer Drug Screen. Data for tumor model P388 Leukemia (intraperitoneal) in CD2F1 (CDF1) mice. To be noted: endpoint: median survival time, higher = longer survival. The procedure, abridged:
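Mice carrying the transplanted tumor received test compound or vehicle. Survival was recorded in each group, and the value is the treated-group measurement divided by that of the vehicle-treated control group.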

Setting [1] is: dose: 50.0 mg/kg/injection, schedule: Q01DX005 (ip), vehicle: Klucel (hydroxypropylcellulose) (HPC).
The mark [2] stands for this setting: dose: 100.0 mg/kg/injection, schedule: Q01DX005 (ip), vehicle: Klucel (hydroxypropylcellulose) (HPC).
[3] abbreviates: dose: 200.0 mg/kg/injection, schedule: Q01DX005 (ip), vehicle: Klucel (hydroxypropylcellulose) (HPC).
[4] abbreviates: dose: 50.0 mg/kg/injection, schedule: Q01DX009 (ip), vehicle: saline with Tween-80.
Where [5] appears, read: dose: 100.0 mg/kg/injection, schedule: Q01DX009 (ip), vehicle: saline with Tween-80.
Setting [6] is: dose: 200.0 mg/kg/injection, schedule: Q01DX009 (ip), vehicle: saline with Tween-80.
Where [7] appears, read: dose: 25.0 mg/kg/injection, schedule: Q01DX009 (ip), vehicle: Klucel (hydroxypropylcellulose) (HPC).
[8] abbreviates: dose: 50.0 mg/kg/injection, schedule: Q01DX009 (ip), vehicle: Klucel (hydroxypropylcellulose) (HPC).
[9] abbreviates: dose: 100.0 mg/kg/injection, schedule: Q01DX009 (ip), vehicle: Klucel (hydroxypropylcellulose) (HPC).
The mark [10] stands for this setting: dose: 50.0 mg/kg/injection, schedule: Q01DX009 (ip), vehicle: saline.
Setting [11] is: dose: 50.0 mg/kg/injection, schedule: Q01DX005 (ip), vehicle: saline with Tween-80.
[12] abbreviates: dose: 100.0 mg/kg/injection, schedule: Q01DX005 (ip), vehicle: saline with Tween-80.
[13] abbreviates: dose: 200.0 mg/kg/injection, schedule: Q01DX005 (ip), vehicle: saline with Tween-80.
Where [14] appears, read: dose: 60.0 mg/kg/injection, schedule: Q01DX005 (ip), vehicle: Klucel (hydroxypropylcellulose) (HPC).
[15] abbreviates: dose: 120.0 mg/kg/injection, schedule: Q01DX005 (ip), vehicle: Klucel (hydroxypropylcellulose) (HPC).

Consider `Nc1nc(C2CCCCC2)cc(=O)[nH]1`, for which the T/C is 87 % of control under setting [1], 97 % of control under setting [2] and 97 % of control under setting [3].
Turning to `O=C(CCCN1CCN(c2cc3ccccc3cn2)CC1)c1ccc(F)cc1`, the T/C (dose: 12.5 mg/kg/injection, schedule: Q01DX005 (ip), vehicle: Klucel (hydroxypropylcellulose) (HPC)) was 109 % of control; the T/C (dose: 25.0 mg/kg/injection, schedule: Q01DX005 (ip), vehicle: Klucel (hydroxypropylcellulose) (HPC)) was 109 % of control; the T/C under setting [1] is 110 % of control and 115 % of control.
For `C(=C\c1ccccc1)/c1ccccc1`, the T/C is 100 % of control (dose: 6.25 mg/kg/injection, schedule: Q01DX005 (ip), vehicle: saline); 109 % of control (dose: 12.5 mg/kg/injection, schedule: Q01DX005 (ip), vehicle: saline); 94 % of control (dose: 25.0 mg/kg/injection, schedule: Q01DX005 (ip), vehicle: saline).
As to `CC(C)(Br)C(C)(C)OO`, the T/C is, setting by setting: (dose: 18.75 mg/kg/injection, schedule: Q04DX003 (ip), vehicle: Klucel (hydroxypropylcellulose) (HPC)) 104 % of control; (dose: 37.5 mg/kg/injection, schedule: Q04DX003 (ip), vehicle: Klucel (hydroxypropylcellulose) (HPC)) 112 % of control; (dose: 75.0 mg/kg/injection, schedule: Q04DX003 (ip), vehicle: Klucel (hydroxypropylcellulose) (HPC)) 104 % of control.
As to `C#CCNC1=C(C)C(=O)C2=C(C1=O)[C@H](COC(N)=O)[C@]1(OC)[C@@H]3N[C@@H]3CN21`, the T/C reads like this: (dose: 12.0 mg/kg/injection, schedule: Q01DX001 (ip), vehicle: distilled water + Tween-80) 163 % of control; (dose: 24.0 mg/kg/injection, schedule: Q01DX001 (ip), vehicle: distilled water + Tween-80) 173 % of control; (dose: 48.0 mg/kg/injection, schedule: Q01DX001 (ip), vehicle: distilled water + Tween-80) 165 % of control and 265 % of control; (dose: 96.0 mg/kg/injection, schedule: Q01DX001 (ip), vehicle: distilled water + Tween-80) 203 % of control.
Regarding `O=C1CSC(=S)N1c1ccc(F)cc1`, the T/C runs as follows: (dose: 50.0 mg/kg/injection, schedule: Q01DX009 (ip), vehicle: suspension in saline) 106 % of control; (dose: 100.0 mg/kg/injection, schedule: Q01DX009 (ip), vehicle: suspension in saline) 100 % of control; (dose: 200.0 mg/kg/injection, schedule: Q01DX009 (ip), vehicle: suspension in saline) 90 % of control.
Consider `O=C(NCCNC(=O)Nc1ccccc1S(=O)(=O)F)Nc1ccccc1S(=O)(=O)F`, for which the T/C reads like this: under setting [4], 96 % of control; under setting [5], 97 % of control; under setting [6], 93 % of control.
Regarding `CCOC(=O)C1=C(C)O/C(=C/c2ccco2)C1=O`, the T/C under setting [7] was 103 % of control; the T/C under setting [8] was 109 % of control; the T/C under setting [9] is 110 % of control and 111 % of control.
For `CNC(=O)c1ccccc1O`, the T/C under setting [4] is 103 % of control; the T/C under setting [5] is 103 % of control; the T/C under setting [6] was 95 % of control; the T/C (dose: 400.0 mg/kg/injection, schedule: Q01DX009 (ip), vehicle: saline with Tween-80) was 90 % of control.
On to `Cc1nn(C(=O)c2ccncc2)c(C)c1N=Nc1ccc(Cl)cc1`, for which the T/C under setting [10] was 99 % of control; the T/C (dose: 100.0 mg/kg/injection, schedule: Q01DX009 (ip), vehicle: saline) was 91 % of control; the T/C (dose: 200.0 mg/kg/injection, schedule: Q01DX009 (ip), vehicle: saline) is 90 % of control.
`Cc1cccc(N=C(c2ccccc2)C2C(=O)c3ccccc3C2=O)c1`: the T/C under setting [11] was 94 % of control, the T/C under setting [12] is 94 % of control and the T/C under setting [13] is 91 % of control.
As to `C=C1C(O)C2OC(=O)C(=C)C2C(OC(=O)/C(C)=C/C)CC2(C)OC2C2OC12` (centres undefined), the T/C reads like this: (dose: 4.0 mg/kg/injection, schedule: Q01DX005 (ip), vehicle: Klucel (hydroxypropylcellulose) (HPC)) 96 % of control; (dose: 8.0 mg/kg/injection, schedule: Q01DX005 (ip), vehicle: Klucel (hydroxypropylcellulose) (HPC)) 103 % of control; (dose: 16.0 mg/kg/injection, schedule: Q01DX005 (ip), vehicle: Klucel (hydroxypropylcellulose) (HPC)) 100 % of control; (dose: 32.0 mg/kg/injection, schedule: Q01DX005 (ip), vehicle: Klucel (hydroxypropylcellulose) (HPC)) 116 % of control; under setting [1], 115 % of control; (dose: 64.0 mg/kg/injection, schedule: Q01DX005 (ip), vehicle: Klucel (hydroxypropylcellulose) (HPC)) 116 % of control. Also, the T/C by setting is: under setting [2], 109 % of control; under setting [3], 103 % of control.
`O=c1[nH]c(=S)[nH]c2c(=O)[nH]c(=S)[nH]c12`: the T/C is 107 % of control (dose: 12.5 mg/kg/injection, schedule: Q01DX009 (ip), vehicle: Klucel (hydroxypropylcellulose) (HPC)); 101 % of control under setting [7]; 101 % of control and 111 % of control under setting [8].
Consider `COc1cc(OC)c(OC)cc1/C=N/NC(=O)N/N=C/c1cc(OC)c(OC)cc1OC`, for which the T/C is 96 % of control (dose: 12.5 mg/kg/injection, schedule: Q01DX009 (ip), vehicle: distilled water + Tween-80); 96 % of control (dose: 25.0 mg/kg/injection, schedule: Q01DX009 (ip), vehicle: distilled water + Tween-80); 108 % of control (dose: 50.0 mg/kg/injection, schedule: Q01DX009 (ip), vehicle: distilled water + Tween-80); 99 % of control (dose: 100.0 mg/kg/injection, schedule: Q01DX009 (ip), vehicle: distilled water + Tween-80); 94 % of control (dose: 200.0 mg/kg/injection, schedule: Q01DX009 (ip), vehicle: distilled water + Tween-80); 86 % of control (dose: 400.0 mg/kg/injection, schedule: Q01DX009 (ip), vehicle: distilled water + Tween-80).
Take `C=CCc1cn(C2CC(OC(=O)c3ccc(Cl)cc3)C(COC(=O)c3ccc(Cl)cc3)O2)c(=O)[nH]c1=O` (centres undefined): the T/C was 98 % of control under setting [1], 98 % of control under setting [2] and 91 % of control under setting [3].
For the compound `OC(C[n+]1ccccc1)c1ccccc1` (centres undefined), the T/C (dose: 6.25 mg/kg/injection, schedule: Q01DX009 (ip), vehicle: saline) was 105 % of control; the T/C (dose: 12.5 mg/kg/injection, schedule: Q01DX009 (ip), vehicle: saline) is 100 % of control; the T/C (dose: 25.0 mg/kg/injection, schedule: Q01DX009 (ip), vehicle: saline) was 109 % of control; the T/C under setting [10] is 100 % of control.
On to `CC(NC(=O)C(C)NC(=O)OC(C)(C)C)C(=O)O` (centres undefined), for which the T/C reads like this: under setting [11], 100 % of control; under setting [12], 101 % of control; under setting [13], 101 % of control.
Take `CC(C)[N+](C)(C)CC(O)COc1cccc2ccccc12` (centres undefined): the T/C under setting [10] was 104 % of control.
With `ClC(Cl)=Nc1ccccc1`, the T/C under setting [7] was 103 % of control; the T/C under setting [8] is 103 % of control; the T/C under setting [9] was 110 % of control; the T/C (dose: 200.0 mg/kg/injection, schedule: Q01DX009 (ip), vehicle: Klucel (hydroxypropylcellulose) (HPC)) was 93 % of control.
In the case of `O=C1c2cccc3cccc(c23)C(=O)N1c1ncn[nH]1`, the T/C is 87 % of control (dose: 6.25 mg/kg/injection, schedule: Q01DX005 (ip), vehicle: saline with Tween-80); 86 % of control (dose: 12.5 mg/kg/injection, schedule: Q01DX005 (ip), vehicle: saline with Tween-80); 88 % of control under setting [13].
For `CCCCCCCCC#CC(=O)OC`, the T/C by setting is: under setting [4], 97 % of control; under setting [5], 92 % of control; under setting [6], 97 % of control.
In the case of `COC1(OC)C(C)C(C#N)(C#N)C1(OC)OC` (centres undefined), the T/C under setting [14] is 100 % of control and the T/C under setting [15] was 106 % of control.
For `O=c1c2ccccc2oc2nc3ccccc3nc12`, in that order: 101 % of control and 103 % of control.
Take `CC1=NN(C(=O)c2ccc(Cl)cc2)C(=O)C1N=Nc1ccc(S(=O)(=O)Nc2ccccn2)cc1` (centres undefined): the T/C runs as follows: under setting [11], 102 % of control; under setting [12], 94 % of control.
